Ends that are not written are not given here. Peptide text beside a SMILES is read from it.
Legend:
CPM = experiment: HEK cells stably expressing CPM, in PBS; conditions: human, 37 °C, up to 30 min
kB2R = kB2R (Homo sapiens, UniProt P30411); conditions: HEK-kB2R
[1] = ref [2], [9], [21], [24]; cited from earlier work
[2] = test system: HEK cells stably expressing kB1R; conditions: HEK cells expressing only the kB1R; 10 μM peptide in PBS; 30 min, 37 °C; HPLC

kB2R, sequence (P30411 whole entry): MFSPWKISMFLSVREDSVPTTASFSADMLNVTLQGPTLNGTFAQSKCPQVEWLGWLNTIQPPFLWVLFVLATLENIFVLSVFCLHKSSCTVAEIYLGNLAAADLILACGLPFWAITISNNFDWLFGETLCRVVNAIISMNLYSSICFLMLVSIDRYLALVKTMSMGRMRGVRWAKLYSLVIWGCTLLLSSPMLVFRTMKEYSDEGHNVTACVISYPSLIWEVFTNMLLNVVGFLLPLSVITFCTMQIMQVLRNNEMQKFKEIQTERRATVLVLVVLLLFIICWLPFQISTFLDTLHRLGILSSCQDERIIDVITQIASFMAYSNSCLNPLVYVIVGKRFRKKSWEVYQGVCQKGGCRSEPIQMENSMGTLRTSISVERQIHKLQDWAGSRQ

| Compound | cleaved bond (CPM) | lifetime in vivo [1] | other results |
| --- | --- | --- | --- |
| RPPGFSPFR | Phe-Arg9, 30 min |  |  |
| NCCCC[C@H](N)C(=O)N[C@@H](CCCN=C(N)N)C(=O)N1CCC[C@H]1C(=O)N1CCC[C@H]1C(=O)NCC(=O)N[C@@H](Cc1ccccc1)C(=O)N[C@@H](CO)C(=O)N1CCC[C@H]1C(=O)N[C@@H](Cc1ccccc1)C(=O)N[C@@H](CCCN=C(N)N)C(=O)O [KD, Kallidin] |  | lower than 30 seconds | maximal ERK1/2 activation still remaining at 40 min (kB2R; 1 μM KD, 40 min): 80% |
| KRPPGFSPFK | Phe-Lys10, 30 min |  |  |
| NC(N)=NCCC[C@H](NC(=O)[C@H](Cc1ccccc1)NC(=O)[C@@H]1CCCN1C(=O)[C@H](CO)NC(=O)[C@H](Cc1ccccc1)NC(=O)CNC(=O)[C@@H]1CCCN1C(=O)[C@@H]1CCCN1C(=O)[C@@H](N)CCCN=C(N)N)C(=O)O [BK, Bradykinin] (H-RPPGFSPFR-OH) |  | lower than 30 seconds | hydrolysis of peptide [2]: no detectable hydrolysis |
| RPPGFSPFK | Phe-Lys9, 30 min |  |  |
| N=C(N)NCCC[C@H](NC(=O)[C@H](Cc1ccccc1)NC(=O)[C@@H]1CCCN1C(=O)[C@H](CO)NC(=O)[C@H](Cc1ccccc1)NC(=O)CNC(=O)[C@@H]1CCCN1C(=O)[C@@H]1CCCN1C(=O)[C@@H](N)CCCNC(=N)N)C(=O)O [BK, Bradykinin] (H-RPPGFSPFR-OH) |  |  | maximal ERK1/2 phosphorylation maintained from 40 – 60 min (kB2R; 1 μM BK, 40 – 60 min): 40% |

From publication PMC3362676 (Cellular Signalling, 2012)
